Source: patent publication US7576222B2, “Alkynyl-containing tryptophan derivative inhibitors of TACE/matrix metalloproteinase” (priority 2004, dated 2009)

Biological target: T1, catalytic domain of the recombinant TACE protein (Homo sapiens, UniProt P78536)
T1 construct: The catalytic domain of the recombinant TACE protein was expressed and purified; made in house
Assay: TACE FRET assay using TACE cat
Type: biochemical
Conditions: not given
Experimental: TACE FRET Assay Using TACE Cat
“K” is the IC50. Generally, “n” and “B” are floated, noting that n (Hill slope) should be close to 1 and B (background offset) to 0.
Pro-TNF-α substrate peptide Abz-[…]-Dpa (AnaSpec, San Jose, Calif., WARC-1) was prepared as a 2 mM stock solution in the TACE assay buffer (50 mM Tris-HCl, pH 7.4, 25 mM NaCl, 4% Glycerol, 0.005% Brij 35). The catalytic domain of the recombinant TACE protein was expressed and purified. The TACE protein (1 ug/ml) was pretreated with the inhibitors at various concentrations for 10 min. at room temperature. The reaction was initiated by the addition of the substrate peptide. […] The initial rate (slope) of the reaction was determined using a fluorescence plate reader (Molecular Devices, Spectra Max Gemini XS).

T1 sequence (P78536 223-474 limits assumed): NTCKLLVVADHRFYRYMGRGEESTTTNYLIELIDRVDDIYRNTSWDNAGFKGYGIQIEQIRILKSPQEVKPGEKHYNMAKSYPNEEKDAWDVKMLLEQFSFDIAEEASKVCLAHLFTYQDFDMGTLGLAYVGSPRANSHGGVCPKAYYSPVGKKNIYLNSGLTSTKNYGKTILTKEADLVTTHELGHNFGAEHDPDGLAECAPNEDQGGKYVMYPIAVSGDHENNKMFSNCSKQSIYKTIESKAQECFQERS

First: CC#CCOc1ccc(S(=O)(=O)N[C@@H](Cc2cn(Cc3cccc(OC)c3)c3ccc(OC)cc23)C(=O)O)cc1 [Example 52, N-{[4-(but-2-ynyloxy)phenyl]sulfonyl}-5-methoxy-1-(3-methoxybenzyl)tryptophan]
Second: CC#CCOc1ccc(S(=O)(=O)N[C@@H](Cc2c(C)n(Cc3cccc(F)c3)c3ccc(OC)cc23)C(=O)O)cc1 [Example 198, N-{[4-(but-2-ynyloxy)phenyl]sulfonyl}-1-(3-fluorobenzyl)-5-methoxy-2-methyltryptophan]
The IC50 of the first is 6.6-fold higher: 2240 nM for the first, 340 nM for the second. The second is the more potent here.

Same assay, conditions: TACE FRET assay, catalytic domain of recombinant TACE; read-out: TACE IC50

Compared with CC#CCOc1ccc(S(=O)(=O)N[C@H](Cc2cn(CCCCC)c3ccccc23)C(=O)O)cc1 [Example 22, N-{[4-(but-2-ynyloxy)phenyl]sulfonyl}-1-pentyl-D-tryptophan], CC#CCOc1ccc(S(=O)(=O)N[C@H](Cc2cn(Cc3ccc(C)cc3)c3ccccc23)C(=O)O)cc1 [Example 26, N-{[4-(but-2-ynyloxy)phenyl]sulfonyl}-1-(4-methylbenzyl)-D-tryptophan] is 1.6-fold higher in IC50: 2310 nM for the first, 3590 nM for the second. The first is the more potent here.

For CC#CCOc1ccc(S(=O)(=O)N[C@H](Cc2cn(Cc3cc(OC)cc(OC)c3)c3ccccc23)C(=O)O)cc1 [Example 36, N-{[4-(but-2-ynyloxy)phenyl]sulfonyl}-1-(3,5-dimethoxybenzyl)-D-tryptophan], the IC50 was 980 nM.

Same assay, conditions: read-out: TACE Inhibition (%)

Compared with CC#CCOc1ccc(S(=O)(=O)N[C@@H](Cc2c(C)n(Cc3ccc(OC)cc3)c3ccc(OC)cc23)C(=O)O)cc1 [Example 191, N-{[4-(but-2-ynyloxy)phenyl]sulfonyl}-5-methoxy-1-(4-methoxybenzyl)-2-methyltryptophan], CC#CCOc1ccc(S(=O)(=O)N[C@@H](Cc2c(C)n(Cc3cc(OC)cc(OC)c3)c3ccc(OC)cc23)C(=O)O)cc1 [Example 192, N-{[4-(but-2-ynyloxy)phenyl]sulfonyl}-1-(3,5-dimethoxybenzyl)-5-methoxy-2-methyltryptophan] is higher in inhibition at 1 µM: 77.5% for the first, 80% for the second.

Going from CC#CCOc1ccc(S(=O)(=O)N[C@@H](Cc2cn(Cc3ccccc3)c3ccc(OC)cc23)C(=O)O)cc1 [Example 48, 1-benzyl-N-{[4-(but-2-ynyloxy)phenyl]sulfonyl}-5-methoxytryptophan] to CC#CCOc1ccc(S(=O)(=O)N[C@@H](Cc2cn(Cc3cccc(F)c3)c3ccc(OC)cc23)C(=O)O)cc1 [Example 59, N-{[4-(but-2-ynyloxy)phenyl]sulfonyl}-1-(3-fluorobenzyl)-5-methoxytryptophan], the inhibition at 1 µM rises from 37.2% to 44.4%.

Going from CC#CCOc1ccc(S(=O)(=O)N[C@@H](Cc2c(C)n(Cc3ccccc3)c3ccc(Cl)cc23)C(=O)O)cc1 [Example 88, 1-benzyl-N-{[4-(but-2-ynyloxy)phenyl]sulfonyl}-5-chloro-2-methyltryptophan] to CC#CCOc1ccc(S(=O)(=O)N[C@@H](Cc2c(C)n(Cc3ccc(Cl)cc3)c3ccc(Cl)cc23)C(=O)O)cc1 [Example 96, N-{[4-(but-2-ynyloxy)phenyl]sulfonyl}-5-chloro-1-(4-chlorobenzyl)-2-methyltryptophan], the inhibition at 1 µM falls from 62.8% to 56.5%.

Going from CC#CCOc1ccc(S(=O)(=O)N[C@@H](Cc2cn(C)c3ccc(C(=O)O)cc23)C(=O)O)cc1 [Example 127, N-{[4-(but-2-ynyloxy)phenyl]sulfonyl}-5-carboxy-1-methyltryptophan] to CC#CCOc1ccc(S(=O)(=O)N[C@@H](Cc2cn(CC(C)C)c3ccc(C(=O)O)cc23)C(=O)O)cc1 [Example 129, N-{[4-(but-2-ynyloxy)phenyl]sulfonyl}-5-carboxy-1-isobutyltryptophan], the inhibition at 1 µM falls from -3.22% to -4.96%.

Compared with CC#CCOc1ccc(S(=O)(=O)N[C@@H](Cc2cn(Cc3cccc(F)c3)c3ccc(C(=O)O)cc23)C(=O)O)cc1 [Example 116, N-{[4-(but-2-ynyloxy)phenyl]sulfonyl}-5-carboxy-1-(3-fluorobenzyl)tryptophan], CC#CCOc1ccc(S(=O)(=O)N[C@@H](Cc2cn(Cc3cc(F)cc(F)c3)c3ccc(C(=O)O)cc23)C(=O)O)cc1 [Example 118, N-{[4-(but-2-ynyloxy)phenyl]sulfonyl}-5-carboxy-1-(3,5-difluorobenzyl)tryptophan] is lower in inhibition at 1 µM: 9.72% for the first, 5.98% for the second.

First: CC#CCOc1ccc(S(=O)(=O)N[C@@H](Cc2cn(Cc3ccccc3C(F)(F)F)c3ccc(C(=O)O)cc23)C(=O)O)cc1 [Example 111, N-{[4-(but-2-ynyloxy)phenyl]sulfonyl}-5-carboxy-1-[2(trifluoromethyl)benzyl]tryptophan]
Second: CC#CCOc1ccc(S(=O)(=O)N[C@@H](Cc2cn(Cc3ccccc3C(F)(F)F)c3ccc(OC)cc23)C(=O)O)cc1 [Example 55, N-{[4-(but-2-ynyloxy)phenyl]sulfonyl}-5-methoxy-1-[2-(trifluoromethyl)benzyl]tryptophan]
The inhibition at 1 µM of the first is lower: 10.7% for the first, 31.3% for the second.

Compared with CC#CCOc1ccc(S(=O)(=O)N[C@@H](Cc2c(C)n(Cc3ccccc3C)c3ccccc23)C(=O)O)cc1 [Example 145, N-{[4-(but-2-ynyloxy)phenyl]sulfonyl}-2-methyl-1-(2-methylbenzyl)tryptophan], CC#CCOc1ccc(S(=O)(=O)N[C@@H](Cc2c(C)n(Cc3ccccc3OC)c3ccccc23)C(=O)O)cc1 [Example 146, N-{[4-(but-2-ynyloxy)phenyl]sulfonyl}-1-(2-methoxybenzyl)-2-methyltryptophan] is lower in inhibition at 1 µM: 49.5% for the first, 35.9% for the second.

Compared with CC#CCOc1ccc(S(=O)(=O)N[C@@H](Cc2c(C)n(Cc3ccc(C#N)cc3)c3ccc(Cl)cc23)C(=O)O)cc1 [Example 98, N-{[4-(but-2-ynyloxy)phenyl]sulfonyl}-5-chloro-1-(4-cyanobenzyl)-2-methyltryptophan], CC#CCOc1ccc(S(=O)(=O)N[C@@H](Cc2c(C)n(CC(C)C)c3ccc(Cl)cc23)C(=O)O)cc1 [Example 101, N-{[4-(but-2-ynyloxy)phenyl]sulfonyl}-5-chloro-1-isobutyl-2-methyltryptophan] is higher in inhibition at 1 µM: 61% for the first, 68.5% for the second.

First: CC#CCOc1ccc(S(=O)(=O)N[C@@H](Cc2cn(CCCCC)c3ccc(C(=O)O)cc23)C(=O)O)cc1 [Example 130, N-{[4-(but-2-ynyloxy)phenyl]sulfonyl}-5-carboxy-1-pentyltryptophan]
Second: CC#CCOc1ccc(S(=O)(=O)N[C@@H](Cc2cn(CC(C)C)c3ccc(C#N)cc23)C(=O)O)cc1 [Example 143, N-{[4-(but-2-ynyloxy)phenyl]sulfonyl}-5-cyano-1-isobutyltryptophan]
The inhibition at 1 µM of the first is lower: -5.71% for the first, 32.4% for the second.

Compared with CC#CCOc1ccc(S(=O)(=O)N[C@@H](Cc2cn(Cc3ccc(C(C)C)cc3)c3ccc(Cl)cc23)C(=O)O)cc1 [Example 82, N-{[4-(but-2-ynyloxy)phenyl]sulfonyl}-5-chloro-1-(4-isopropylbenzyl)tryptophan], CC#CCOc1ccc(S(=O)(=O)N[C@@H](Cc2cn(Cc3ccc(F)cc3)c3ccc(C#N)cc23)C(=O)O)cc1 [Example 141, N-{[4-(but-2-ynyloxy)phenyl]sulfonyl}-5-cyano-1-(4-fluorobenzyl)tryptophan] is higher in inhibition at 1 µM: 5.26% for the first, 29.6% for the second.

First: CC#CCOc1ccc(S(=O)(=O)N[C@@H](Cc2c[nH]c3ccc(Cl)cc23)C(=O)O)cc1 [Example 133, N-{[4-(but-2-ynyloxy)phenyl]sulfonyl}-5-chlorotryptophan]
Second: CC#CCOc1ccc(S(=O)(=O)N[C@@H](Cc2cn(Cc3cccc(C)c3)c3ccc(OC)cc23)C(=O)O)cc1 [Example 50, N-{[4-(but-2-ynyloxy)phenyl]sulfonyl}-5-methoxy-1-(3-methylbenzyl)tryptophan]
The inhibition at 1 µM of the first is higher: 73.9% for the first, 30.6% for the second.
